Each block holds one compound with its values, some of them ahead of it.
Legend:
[1] = test system: PDE2A; test: In vitro autoradiography on pig brain cryosections, blocking studies; format: binding; details: 10 µM blocker
Procedure: To verify these findings, blocking studies with 10 µM of TA1 (a potent PDE2 ligand)
Pig brain cryosections (16 µm; Microm HM560 Cryostat, FischerScientific GmbH, Schwerte, Germany) were thawed, dried in a stream of cold air, and preincubated for 10 min with buffer (50 mM TRIS-HCl, pH 7.4, 120 mM NaCl, 5 mM KCl, 2 mM MgCl2) at room temperature. […] The sections were then washed twice with ice-cold 50 mM TRIS-HCl (pH 7.4), dipped in ice-cold deionized water, dried in a stream of cold air, and exposed for 60 min to an image plate. The analysis was performed using an image plate scanner (HD-CR 35; Duerr NDT GmbH, Bietigheim Bissingen, Germany).

[2] = In vivo metabolism of the radioligand in mice; design: species or system mouse; details: i.v., 30 min p.i., radio-HPLC
Procedure: Prior to the analysis with RP-HPLC, the samples were treated with a mixture of MeCN/H2O (4:1, v/v) to precipitate the proteins. The recovery of radioactivity in plasma and brain samples was 96% and 99%, respectively. […] As shown in the chromatograms (Figure 5), the two radio-metabolites ([^18F]M1 and [^18F]M2) found in the brain were also observed in the corresponding plasma sample, indicating their ability to penetrate the blood-brain barrier. […] On the basis of the in vitro metabolites M1 and M2, both elucidated by LC-MS in the mentioned study, we can conclude about the brain penetrating radio-metabolites [^18F]M1 and [^18F]M2 as products of N-oxidation or C-hydroxylation. Besides, some of the more polar radio-metabolites detected in plasma could only tentatively be assigned as formed by mono-oxygenation, di-oxygenation, reduction, and demethylation, but were not investigated further. […]
Protein precipitation of plasma and brain samples was performed in duplicate with ice-cold MeCN/H2O (8:2, v/v), which was added to the samples (sample/solvent, 1:4, v/v). […] The combined supernatants were concentrated at 70 °C under nitrogen stream until a remaining volume of 100 µL and subsequently quantified by analytical radio-HPLC with an isocratic system (42% MeCN/20 mM NH4OAcaq.; flow rate: 1.0 mL/min). […]

[3] = target: T1, PDE2A (Mus musculus, UniProt Q922S4); test: Dynamic PET-MRI studies in CD-1 mice; format: in vivo; details: female CD-1 mice, i.v., 5 min p.i.; whole brain, striatum and cerebellum
T1 construct: from tissue; host or cells: brain of living female CD-1 mice (in vivo PET)
T1 sequence (Q922S4 1-939): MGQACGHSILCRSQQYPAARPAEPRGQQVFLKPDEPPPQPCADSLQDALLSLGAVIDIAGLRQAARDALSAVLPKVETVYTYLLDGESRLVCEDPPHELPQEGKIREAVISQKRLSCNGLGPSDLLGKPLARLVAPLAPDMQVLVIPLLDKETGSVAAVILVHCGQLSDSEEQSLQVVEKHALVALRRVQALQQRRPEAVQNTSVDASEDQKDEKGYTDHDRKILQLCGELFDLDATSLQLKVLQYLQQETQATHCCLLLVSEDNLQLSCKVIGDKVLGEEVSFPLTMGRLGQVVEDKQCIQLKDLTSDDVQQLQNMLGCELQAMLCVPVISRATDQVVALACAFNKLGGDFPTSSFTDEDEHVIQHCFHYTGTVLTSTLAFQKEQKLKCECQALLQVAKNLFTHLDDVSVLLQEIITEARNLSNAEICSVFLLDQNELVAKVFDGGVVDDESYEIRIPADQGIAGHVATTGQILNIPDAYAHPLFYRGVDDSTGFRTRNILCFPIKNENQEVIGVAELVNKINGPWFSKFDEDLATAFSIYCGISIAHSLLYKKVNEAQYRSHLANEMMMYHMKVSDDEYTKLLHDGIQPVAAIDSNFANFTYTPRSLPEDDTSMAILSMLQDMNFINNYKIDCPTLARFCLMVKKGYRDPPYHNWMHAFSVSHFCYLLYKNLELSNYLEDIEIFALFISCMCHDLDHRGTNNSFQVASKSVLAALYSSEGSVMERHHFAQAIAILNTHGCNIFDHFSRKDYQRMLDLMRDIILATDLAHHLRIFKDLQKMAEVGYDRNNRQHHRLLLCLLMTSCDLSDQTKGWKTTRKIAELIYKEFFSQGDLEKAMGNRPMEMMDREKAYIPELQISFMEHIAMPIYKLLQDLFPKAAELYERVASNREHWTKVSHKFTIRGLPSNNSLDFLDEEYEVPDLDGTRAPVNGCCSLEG
Procedure: As reflected by the time-activity curves (TACs) shown in Figure 6, the radioactivity uptake in the whole brain, striatum, and cerebellum reached standardized uptake values (SUVs) of about 0.7 at 5 min p.i., indicating blood-brain barrier penetration.
PET/MRI scans were performed using a preclinical PET/MRI system (nanoScan, Mediso Medical Imaging Systems, Budapest, Hungary). Animals were anesthetized with a mixture of air/isoflurane (2.0%, 200 mL/min) (Anesthesia Unit U-410, agntho’s, Lidingö, Sweden), and their body temperature maintained at 37 °C with a thermal bed system. […] A dynamic 60-min PET scan was started 20 sec before radioligand injection. The list-mode data were reconstructed into 33 frames (12 × 10 sec, 6 × 30 sec, 5 × 1 min, 10 × 5 min) with 3D-ordered subset expectation maximization, 4 iterations, and 6 subsets, using an energy window of 400 to 600 KeV and coincidence mode of 1–5. After the PET scan, an MRI scan was performed for anatomical orientation and attenuation correction on a 1T magnet using a T1-weighted gradient-echo sequence (TR = 15 ms, TE = 2.6 ms). The data analysis was done with PMOD (PMOD Technologies Ltd., Zurich, Switzerland, v. 3.6), and an atlas-based method was used to obtain SUV time-activity curves for the striatum, cerebellum, and the whole brain.

[4] = In vitro stability of the radioligand; format: physicochemical; details: PBS, pig plasma, n-octanol and saline formulation containing 10% ethanol; 40 °C, up to 1 h
Procedure: (§1) The lipophilicity was determined by the shake-flask method in the n-octanol/PBS system. […] Moreover, the big discrepancy between the experimental and the calculated logD7.4 value was already observed for our PDE2 tracer [^18F]TA5 and has been previously discussed. It is assumed that the experimentally determined higher hydrophilicity of [^18F]TA5 might be due to the solvation effect related to hydrogen bonding and ionization of the radioligand in the aqueous buffered system. Whereas with the software-based determination, this effect may be underestimated. Therefore, the calculated logD value is often higher than the experimentally determined value.
Samples were taken at 30 and 60 min and analyzed by radio-TLC and radio-HPLC.

[5] = Lipophilicity by shake-flask method (n-octanol/PBS); format: physicochemical; details: n-octanol/PBS pH 7.4, ambient temperature, read-out: logD7.4
Procedure: as §1
The tubes were shaken for 20 min using a mechanical shaker (HS250 basic, IKA Labortechnik GmbH & Co. KG, Staufen, Germany) followed by centrifugation (5000 rpm for 5 min) and separation of the phases. Aliquots of 1 mL of the organic and the aqueous phase were taken, and the activity was measured using an automated gamma counter (1480 WIZARD, Fa. Perkin Elmer, Waltham, MA, USA). The distribution coefficient (D) was calculated as [activity (cpm/mL) in n-octanol]/[(activity (cpm/mL) in PBS], specified as the decadic logarithm (logD).

[6] = test system: hPDE2A; details: cited from earlier work
[7] = test system: hPDE10A; design: method as in PMID 24189054, PMID 23651455; details: cited from earlier work
[8] = test system: PDE10A; details: cited from earlier work
[9] = test system: PDE2A; details: cited from earlier work

decrease of [18F]BIT1 binding in caudate nucleus (Cd) ([1]; 1.72 nM [18F]BIT1): ~ 50%
decrease of [18F]BIT1 binding in nucleus accumbens (Acb) ([1]; 1.72 nM [18F]BIT1): ~ 30%
decrease of [18F]BIT1 binding in cerebellum (Cb) ([1]; 1.72 nM [18F]BIT1, non-PDE2A region): 20–30%
Structure (SMILES): COc1ccc(Cl)c(-c2nc(C)c3nnc4ccc(-c5ccnc(F)c5)cc4n23)c1 [BIT1, 1-(2-chloro-5-methoxyphenyl)-8-(2-fluoropyridin-4-yl)-3-methylbenzo[e]imidazo[5,1-c][1,2,4]triazine]

intact tracer, fraction of total activity in brain ([2]; brain homogenate): 78%
intact tracer, fraction of total activity in plasma [2]: 43%
standardized uptake value (SUV) in brain [3]: ~ 0.7
in vitro stability (radiochemical purity after incubation) [4]: ≥ 99%
logD [5]: 1.81 ± 0.05
Structure (SMILES): COc1ccc(Cl)c(-c2nc(C)c3nnc4ccc(-c5ccnc([18F])c5)cc4n23)c1 [[^18F]BIT1]

Structure (SMILES): Cc1nc(-c2cnn(C)c2-c2ccc(C(F)(F)F)cc2)c2c(N3CC([18F])C3)ncnn12 [[^18F]PF-05270430]
IC50 [6]: 0.5 nM
IC50 [7]: > 3000 nM

Structure (SMILES): COc1ccc2nnc3c(C)nc(-c4cc(OCCC[18F])ccc4F)n3c2n1 [[^18F]TA3]
IC50 [8]: 318 nM
IC50 [9]: 11.4 nM

Structure (SMILES): COc1ccc2nnc3c(C)nc(-c4cc(OCCCC[18F])ccc4F)n3c2n1 [[^18F]TA4]
IC50 [8]: 913 nM
IC50 [9]: 7.3 nM

Structure (SMILES): CCCCOc1ccc(F)c(-c2nc(C)c3nnc4ccc(OCC[18F])nc4n23)c1 [[^18F]TA5]
IC50 [8]: > 1000 nM

Reference: article PMC6891464, “Radiosynthesis and Biological Investigation of a Novel Fluorine-18 Labeled Benzoimidazotriazine-Based Radioligand for the Imaging of Phosphodiesterase 2A with Positron Emission Tomography” (Molecules, 2019)
